Laboratory results from patent publication US20070275925A1, “ASTHMA DIAGNOSIS AND THERAPY” (REGENTS OF THE UNIVERSITY OF CALIFORNIA, priority 2006, published 2007).

Tested on: Periostin
Test: Periostin immunohistochemistry in bronchial biopsies with design-based stereology
Type: in vivo, human
Settings: one week of treatment with fluticasone
Excerpt: Periostin protein expression was confirmed by immunohistochemistry in bronchial biopsies from a subset of asthmatic and healthy control subjects. Periostin immunolocalized to the subepithelium in all subjects, and quantification confirmed increased expression in asthma (FIG. 3). The degree of immunostaining in asthmatics was not decreased by one week of treatment with fluticasone (FIG. 6, supplementary appendix). Paraffin-embedded sections were deparaffinized and re-hydrated to water. Next, all sections were incubated in 3% hydrogen peroxide/absolute methanol for 10 minutes to block endogenous peroxidase activity. […] Biopsies were formalin-fixed and paraffin-embedded and then analyzed using methods of tissue immunohistochemistry (described above) and design-based stereology.^6 First, the volume of immunohistochemical staining, the volume of submucosal tissue surveyed, and the surface area of the epithelial basal lamina surveyed were determined by point and intersection counting using an integrated microscope (Olympus; Albertslund, Denmark), video camera (JVC Digital Color, JVC A/S; Tatstrup, Denmark), automated microscope stage, and computer (Dell Optiplex GS270 PC running Computer-Assisted Stereology Toolbox [C.A.S.T.] […] Points overlying submucosal tissue that is immunostained and unstained were counted separately along with intersections of test lines with basal lamina. […]

## CCC(=O)O[C@]1(C(=O)SCF)[C@H](C)C[C@H]2[C@@H]3C[C@H](F)C4=CC(=O)C=C[C@]4(C)[C@@]3(F)[C@@H](O)C[C@@]21C [fluticasone, fluticasone propionate]
  Degree of periostin immunostaining in bronchial biopsies of asthmatics: not decreased
